This passage reports inhibition results from patent publication US9062061B2, “Compound having PARP inhibitory activity” (SANTEN PHARMACEUTICAL CO., LTD., priority 2011, dated 2015).

SMILES strings stand for the structures.

By inhibition is commonly meant the drop in the measured response relative to a control, in per cent.

The target of this experiment is T1, human recombinant PARP1 (Homo sapiens, UniProt P09874).
T1 construct: purchased Trevigen 4677-096-K
Kind of experiment: PARP inhibitory activity measurement test (Universal Colorimetric PARP Assay kit, Trevigen). The note with it: compound concentration: 10 μM, read-out: PARP1 inhibition rate (%). It is filed as biochemical. How it is done:
For evaluating PARP inhibitory activity of the present compound, inhibitory activity of each test compound against human recombinant PARP 1 was measured using Universal Colorimetric PARP Assay kit with Histone-Coated Strip Wells (Cat No.: 4677-096-K) available from Trevigen. The test was conducted according to the procedure in the instruction attached to this kit. The concrete operation will be described below.
After dissolving the test compound in dimethyl sulfoxide, the solution was diluted with a PARP buffer attached to the kit to prepare a 50 μM test compound solution.
In each well of a histone-coated 96-well plate, 10 μL of the test compound solution (50 μM), 15 μL of human recombinant PARP1 (33.3 Unit/mL) and 25 μL of PARP cocktail (containing activated DNA and biotinated NAD) were added, and incubated at room temperature for 1 hour (final reaction amount: 50 μL). Each well was washed twice with 200 μL of 0.1% Triton-X-containing Dulbecco's phosphate buffer, and further washed twice with 200 μL of Dulbecco's phosphate buffer, and then 50 μL of Strep-HRP was added, followed by incubation at room temperature for 1 hour. Each well was washed twice with 200 μL of 0.1% Triton-X-containing Dulbecco's phosphate buffer, and further washed twice with 200 μL of Dulbecco's phosphate buffer, and then 50 μL of TACS-Sapphire coloriometric substrate was added, followed by incubation at room temperature for 15 minutes. After stopping the reaction by adding 50 μL of 0.2 M HCl, absorbance at 450 nm (Abs 450) was measured by a microplate reader. The number of examples in each group was 1 to 2.
Using a well into which dimethyl sulfoxide and a PARP buffer were added in place of the test compound solution and human recombinant PARP1, the above operation was conducted as a negative control.
Using a well into which a PARP buffer containing dimethyl sulfoxide was added in place of the test compound solution, the above operation was conducted as a positive control.
PARP1 inhibition rate (%) was calculated according to the following Formula 1. PARP1 inhibition rate(%)=(AbsB−AbsX)/(AbsB−AbsA)×100 [Formula 1]
AbsA: absorbance of negative control (Abs 450)
AbsB: absorbance of positive control (Abs 450)
AbsX: absorbance of test compound-treated group (Abs 450)

T1 sequence (P09874 whole entry): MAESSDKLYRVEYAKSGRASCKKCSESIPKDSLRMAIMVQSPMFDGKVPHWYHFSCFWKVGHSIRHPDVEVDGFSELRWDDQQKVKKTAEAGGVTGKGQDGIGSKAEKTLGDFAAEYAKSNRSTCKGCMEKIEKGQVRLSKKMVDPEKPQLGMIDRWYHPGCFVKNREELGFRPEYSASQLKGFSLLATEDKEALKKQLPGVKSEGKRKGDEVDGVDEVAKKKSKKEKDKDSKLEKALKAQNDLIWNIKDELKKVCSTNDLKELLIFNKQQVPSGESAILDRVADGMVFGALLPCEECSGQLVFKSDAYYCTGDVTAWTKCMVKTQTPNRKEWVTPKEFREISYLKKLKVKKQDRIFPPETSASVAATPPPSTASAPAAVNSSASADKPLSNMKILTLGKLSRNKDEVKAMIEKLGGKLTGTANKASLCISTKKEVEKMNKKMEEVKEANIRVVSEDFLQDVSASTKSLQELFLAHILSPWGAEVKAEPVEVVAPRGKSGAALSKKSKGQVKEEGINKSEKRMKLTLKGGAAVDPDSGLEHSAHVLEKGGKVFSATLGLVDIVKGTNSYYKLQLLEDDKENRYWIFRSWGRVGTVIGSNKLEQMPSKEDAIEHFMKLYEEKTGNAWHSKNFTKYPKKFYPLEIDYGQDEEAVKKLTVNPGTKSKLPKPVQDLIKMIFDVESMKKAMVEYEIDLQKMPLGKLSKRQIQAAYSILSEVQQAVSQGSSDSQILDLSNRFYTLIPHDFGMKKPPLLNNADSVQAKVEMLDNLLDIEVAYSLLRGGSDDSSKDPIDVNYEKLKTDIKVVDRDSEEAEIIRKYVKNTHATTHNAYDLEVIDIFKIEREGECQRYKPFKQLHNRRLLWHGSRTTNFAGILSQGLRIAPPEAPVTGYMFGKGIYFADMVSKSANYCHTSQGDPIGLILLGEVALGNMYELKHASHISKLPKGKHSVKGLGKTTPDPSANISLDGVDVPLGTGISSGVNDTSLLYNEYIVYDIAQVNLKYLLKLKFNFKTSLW

For `O=C(c1cc2[nH]c(=O)c3ccccc3n2c1)N1CCN(c2ccc(F)cc2)CC1` [Compound 1-1, 2-[4-(4-Fluorophenyl)piperazine-1-carbonyl]pyrrolo[1,2-a]quinazolin-5(4H)-one], the inhibition at 10 µM came out at 90%. The result for `O=C(c1cc2[nH]c(=O)c3ccccc3n2c1)N1CCN(Cc2ccc(Cl)cc2)CC1` [Compound 1-2, 2-[4-(4-Chlorobenzyl)piperazine-1-carbonyl]pyrrolo[1,2-a]quinazolin-5(4H)-one] reads 55%; that for `O=C(c1cc2[nH]c(=O)c3ccccc3n2c1)N1CCN(c2nccs2)CC1` [Compound 1-3, 2-[4-(Thiazol-2-yl)piperazine-1-carbonyl]pyrrolo[1,2-a]quinazolin-5(4H)-one], 100%; that for `O=C(c1cc2[nH]c(=O)c3ccccc3n2c1)N1CCN(c2ccccc2)CC1` [Compound 1-4, 2-(4-Phenylpiperazine-1-carbonyl)pyrrolo[1,2-a]quinazolin-5(4H)-one], 99%. `O=C(c1cc2[nH]c(=O)c3ccccc3n2c1)N1CCC(c2ccccc2)CC1` [Compound 1-5, 2-(4-Phenylpiperidine-1-carbonyl)pyrrolo[1,2-a]quinazolin-5(4H)-one]: the inhibition at 10 µM was 71%. Next, `O=C(c1cc2[nH]c(=O)c3ccccc3n2c1)N1CC=C(c2ccccc2)CC1` [Compound 1-6, 2-(4-Phenyl-1,2,3,6-tetrahydropyridine-1-carbonyl)pyrrolo[1,2-a]quinazolin-5(4H)-one]: 23%; `O=C(c1cc2[nH]c(=O)c3ccccc3n2c1)N1CC=C(c2ccc(Cl)cc2)CC1` [Compound 1-7, 2-[4-(4-Chlorophenyl)-1,2,3,6-tetrahydropyridine-1-carbonyl]pyrrolo[1,2-a]quinazolin-5(4H)-one]: 44%; `O=C(c1cc2[nH]c(=O)c3ccccc3n2c1)N1CC=C(c2ccc(F)cc2)CC1` [Compound 1-8, 2-[4-(4-Fluorophenyl)-1,2,3,6-tetrahydropyridine-1-carbonyl]pyrrolo[1,2-a]quinazolin-5(4H)-one]: 51%.

In the case of `CN1CCN(C(=O)c2cc3[nH]c(=O)c4ccccc4n3c2)CC1` [Compound 1-10, 2-(4-Methylpiperazine-1-carbonyl)pyrrolo[1,2-a]quinazolin-5(4H)-one], the inhibition at 10 µM is 68%.

As to `O=C(c1cc2[nH]c(=O)c3ccccc3n2c1)N1CCN(Cc2ccccc2)CC1` [Compound 1-11, 2-(4-Benzylpiperazine-1-carbonyl)pyrrolo[1,2-a]quinazolin-5(4H)-one], the inhibition at 10 µM is 86%. For `O=C(c1cc2[nH]c(=O)c3ccccc3n2c1)N1CCN(c2ccc(Cl)cc2)CC1` [Compound 1-12, 2-[4-(4-Chlorophenyl)piperazine-1-carbonyl]pyrrolo[1,2-a]quinazolin-5(4H)-one], the inhibition at 10 µM stood at 64%. On to `O=C(c1cc2[nH]c(=O)c3ccccc3n2c1)N1CCN(Cc2ccc(F)cc2)CC1` [Compound 1-13, 2-[4-(4-Fluorobenzyl)piperazine-1-carbonyl]pyrrolo[1,2-a]quinazolin-5(4H)-one], for which the inhibition at 10 µM was 67%. The result for `O=C(c1cc2[nH]c(=O)c3ccccc3n2c1)N1CCC(c2ccc(F)cc2)CC1` [Compound 1-14, 2-[4-(4-Fluorophenyl)piperidine-1-carbonyl]pyrrolo[1,2-a]quinazolin-5(4H)-one] reads 44%. Next, `O=C(c1cc2[nH]c(=O)c3ccccc3n2c1)N1CCN(c2cccc(F)c2)CC1` [Compound 1-15, 2-[4-(3-Fluorophenyl)piperazine-1-carbonyl]pyrrolo[1,2-a]quinazolin-5(4H)-one]: 74%; `O=C(c1cc2[nH]c(=O)c3ccccc3n2c1)N1CCc2ccccc2C1` [Compound 1-21, 2-(3,4-Dihydroisoquinoline-2(1H)-carbonyl)pyrrolo[1,2-a]quinazolin-5(4H)-one]: 84%. The result for `CC(C)(C)OC(=O)N1CCCN(C(=O)c2cc3[nH]c(=O)c4ccccc4n3c2)CC1` [Compound 1-47, 2-[4-(tert-Butoxycarbonyl)homopiperazine-1-carbonyl]pyrrolo[1,2-a]quinazolin-5(4H)-one] reads 93%; that for `O=C(Nc1ccccc1)c1cc2[nH]c(=O)c3ccccc3n2c1` [Compound 1-49, 2-(Phenylaminocarbonyl)pyrrolo[1,2-a]quinazolin-5(4H)-one], 36%. With `CN1CCCN(C(=O)c2cc3[nH]c(=O)c4ccccc4n3c2)CC1` [Compound 1-50, 2-(4-Methylhomopiperazine-1-carbonyl)pyrrolo[1,2-a]quinazolin-5(4H)-one], the inhibition at 10 µM worked out at 92%. Consider `CN(C)CCNC(=O)c1cc2[nH]c(=O)c3ccccc3n2c1` [Compound 1-51, 2-[(2-Dimethylaminoethyl)aminocarbonyl]pyrrolo[1,2-a]quinazolin-5(4H)-one], for which the inhibition at 10 µM was determined as 92%. For `O=C(NCc1ccncc1)c1cc2[nH]c(=O)c3ccccc3n2c1` [Compound 1-52, 2-[(Pyridin-4-ylmethyl)aminocarbonyl]pyrrolo[1,2-a]quinazolin-5(4H)-one], the inhibition at 10 µM is 94%. As to `O=C(NCCN1CCOCC1)c1cc2[nH]c(=O)c3ccccc3n2c1` [Compound 1-53, 2-[2-(Morpholin-4-ylethyl)aminocarbonyl]pyrrolo[1,2-a]quinazolin-5(4H)-one], the inhibition at 10 µM was found to be 96%.

For the compound `O=C(NCc1ccccc1)c1cc2[nH]c(=O)c3ccccc3n2c1` [Compound 1-54, 2-(Benzylaminocarbonyl)pyrrolo[1,2-a]quinazolin-5(4H)-one], the inhibition at 10 µM came out at 81%. Take `O=C(NCCc1ccccc1)c1cc2[nH]c(=O)c3ccccc3n2c1` [Compound 1-55, 2-(2-Phenylethylaminocarbonyl)pyrrolo[1,2-a]quinazolin-5(4H)-one]: the inhibition at 10 µM was 81%. Next, `O=C(NCCCc1ccccc1)c1cc2[nH]c(=O)c3ccccc3n2c1` [Compound 1-56, 2-(3-Phenylpropylaminocarbonyl)pyrrolo[1,2-a]quinazolin-5(4H)-one]: 83%; `O=c1[nH]c2cc(CN3CCN(Cc4ccc(Cl)cc4)CC3)cn2c2ccccc12` [Compound 2-2, 2-[4-(4-Chlorobenzyl)piperazin-1-ylmethyl]pyrrolo[1,2-a]quinazolin-5(4H)-one]: 78%; `O=c1[nH]c2cc(CN3CCN(c4nccs4)CC3)cn2c2ccccc12` [Compound 2-3, 2-[4-(Thiazol-2-yl)piperazin-1-ylmethyl]pyrrolo[1,2-a]quinazolin-5(4H)-one]: 99%.

As for `O=c1[nH]c2cc(CN3CCN(c4ccccc4)CC3)cn2c2ccccc12` [Compound 2-4, 2-(4-Phenylpiperazin-1-ylmethyl)pyrrolo[1,2-a]quinazolin-5(4H)-one], the inhibition at 10 µM worked out at 100%. For `O=c1[nH]c2cc(CN3CC=C(c4ccccc4)CC3)cn2c2ccccc12` [Compound 2-6, 2-(4-Phenyl-1,2,3,6-tetrahydropyridin-1-ylmethyl)pyrrolo[1,2-a]quinazolin-5(4H)-one], the inhibition at 10 µM worked out at 100%. Next, `CN1CCN(Cc2cc3[nH]c(=O)c4ccccc4n3c2)CC1` [Compound 2-10, 2-(4-Methylpiperazin-1-ylmethyl)pyrrolo[1,2-a]quinazolin-5(4H)-one]: 98%; `O=c1[nH]c2cc(CN3CCN(Cc4ccccc4)CC3)cn2c2ccccc12` [Compound 2-11, 2-(4-Benzylpiperazin-1-ylmethyl)pyrrolo[1,2-a]quinazolin-5(4H)-one]: 99%. Next, `O=c1[nH]c2cc(CN3CCN(Cc4ccc(F)cc4)CC3)cn2c2ccccc12` [Compound 2-13, 2-[4-(4-Fluorobenzyl)piperazin-1-ylmethyl]pyrrolo[1,2-a]quinazolin-5(4H)-one]: 96%; `O=c1[nH]c2cc(CN3CCN(c4cccc(F)c4)CC3)cn2c2ccccc12` [Compound 2-15, 2-[4-(3-Fluorophenyl)piperazin-1-ylmethyl]pyrrolo[1,2-a]quinazolin-5(4H)-one]: 98%; `O=c1[nH]c2cc(CN3CCN(c4cccnc4)CC3)cn2c2ccccc12` [Compound 2-18, 2-[4-(Pyridine-3-yl)piperazin-1-ylmethyl]pyrrolo[1,2-a]quinazolin-5(4H)-one]: 95%. The result for `CN(CCCc1ccccc1)Cc1cc2[nH]c(=O)c3ccccc3n2c1` [Compound 2-19, 2-[N-Methyl-N-(3-phenylpropyl)aminomethyl]pyrrolo[1,2-a]quinazolin-5(4H)-one] reads 93%.
